The record followed here is patent US8343957B2, “Therapeutic pyrazoloquinoline urea derivatives” (Dart Neuroscience (Cayman) Ltd., priority 2007, dated 2013).

Some results are limits rather than exact numbers.

Usually IC50 stands for the point on the concentration scale where inhibition reaches its midpoint.

The target in the test is GABAA central benzodiazepine receptor. Kind of test: Benzodiazepine Binding Assay. Particulars: read-out: BZ binding Assay IC50; 1 nM (3H)-flunitrazepam, rat whole brain (except cerebellum) membranes, 60 minutes at 25° C.
For the compound “5-(4-Isopropylpiperazine-1-carbonyl)-7,8-difluoro-4-methyl-2-phenyl-2,5-dihydro-pyrazolo-(4,3-c)quinolin-3-one [Compd 48]”, the IC50 is over 1000 nM. With `CC1CCN(C(=O)n2cc3c(=O)n(-c4ccccc4)nc-3c3ccccc32)CC1` [Compd 5, 5-(4-Methylpiperidine-1-carbonyl)-2-phenyl-2,5-dihydro-pyrazolo-(4,3-c)quinolin-3-one] the figure was under 1000 nM; with `CC1CN(C(=O)n2cc3c(=O)n(-c4ccccc4)nc-3c3ccccc32)CC(C)O1` (stereo not drawn) [Compd 6], under 1000 nM; with `COCCN1CCN(C(=O)n2cc3c(=O)n(-c4ccccc4)nc-3c3ccccc32)CC1` [Compd 7, 5-(4-(2-Methoxyethyl)-piperazine-1-carbonyl)-2-phenyl-2,5-dihydro-pyrazolo-(4,3-c)quinolin-3-one], under 1000 nM. For the compound `CC(C)N1CCN(C(=O)n2cc3c(=O)n(-c4ccccc4)nc-3c3ccccc32)CC1` [Compd 8, 5-(4-Isopropylpiperazine-1-carbonyl)-2-phenyl-2,5-dihydro-pyrazolo-(4,3-c)quinolin-3-one], the IC50 is under 1000 nM. Consider `CC1CCCN1C(=O)n1cc2c(=O)n(-c3ccccc3)nc-2c2ccccc21` (stereo not drawn) [Compd 9, 5-(2-Methylpyrrolidine-1-carbonyl)-2-phenyl-2,5-dihydro-pyrazolo-(4,3-c) quinolin-3-one], for which the IC50 was under 1000 nM.

Turning to `O=C(N1CCN(c2ccccc2)CC1)n1cc2c(=O)n(-c3ccccc3)nc-2c2ccccc21` [Compd 10, 5-(4-Phenylpiperazine-1-carbonyl)-2-phenyl-2,5-dihydro-pyrazolo-(4,3-c) quinolin-3-one], the IC50 was under 1000 nM. Consider `CC1CN(C(=O)n2cc3c(=O)n(-c4ccccc4)nc-3c3ccccc32)CC(C)N1` (stereo not drawn) [Compd 11, 5-(3,5-Dimethylpiperazine-1-carbonyl)-2-phenyl-2,5-dihydro-pyrazolo-(4,3-c)quinolin-3-one], for which the IC50 was under 1000 nM. As to `O=C(N1CCCCC1)n1cc2c(=O)n(-c3ccccc3)nc-2c2ccccc21` [Compd 12, 5-(Piperidine-1-carbonyl)-2-phenyl-2,5-dihydro-pyrazolo-(4,3-c)quinolin-3-one], the IC50 was under 1000 nM. With `O=C(N1CCOCC1)n1cc2c(=O)n(-c3ccccc3)nc-2c2ccccc21` [Compd 13, 5-(Morpholine-4-carbonyl)-2-phenyl-2,5-dihydro-pyrazolo-(4,3-c)quinolin-3-one], the IC50 is over 1000 nM.

With `C=CCN1CCN(C(=O)n2cc3c(=O)n(-c4ccccc4)nc-3c3ccccc32)CC1` [Compd 14, 5-(4-Allylpiperazine-1-carbonyl)-2-phenyl-2,5-dihydro-pyrazolo-(4,3-c) quinolin-3-one], the IC50 was under 1000 nM. Turning to `CC(C)N1CCN(C(=O)n2cc3c(=O)n(-c4ccccc4F)nc-3c3ccccc32)CC1` [Compd 15, 5-(4-Isopropylpiperazine-1-carbonyl)-2-(2′-fluorophenyl)-2,5-dihydro-pyrazolo-(4,3-c)quinolin-3-one], the IC50 is under 1000 nM.

As for `CN1CCN(C(=O)n2cc3c(=O)n(-c4ccccc4F)nc-3c3ccccc32)CC1` [Compd 16, 5-(4-Methylpiperazine-1-carbonyl)-2-(2′-fluorophenyl)-2,5-dihydro-pyrazolo-(4,3-c)quinolin-3-one], the IC50 was under 1000 nM. As to `COc1ccc(-n2nc3c4ccccc4n(C(=O)N4CCN(C(C)C)CC4)cc-3c2=O)cc1` [Compd 17, 5-(4-Isopropylpiperazine-1-carbonyl)-2-(4′-methoxyphenyl)-2,5-dihydro-pyrazolo-(4,3-c)quinolin-3-one], the IC50 is under 1000 nM. For the compound `COc1ccc(-n2nc3c4ccccc4n(C(=O)N4CCN(C)CC4)cc-3c2=O)cc1` [Compd 18, 5-(4-Methylpiperazine-1-carbonyl)-2-(4′-methoxyphenyl)-2,5-dihydro-pyrazolo-(4,3-c)quinolin-3-one], the IC50 was under 1000 nM.

With `CC(C)N1CCN(C(=O)n2cc3c(=O)n(-c4ccccc4)nc-3c3cc(F)ccc32)CC1` [Compd 19, 5-(4-Isopropylpiperazine-1-carbonyl)-8-fluoro-2-phenyl-2,5-dihydro-pyrazolo-(4,3-c)quinolin-3-one], the IC50 is under 1000 nM.

Regarding `CN1CCN(C(=O)n2cc3c(=O)n(-c4ccccc4)nc-3c3cc(F)ccc32)CC1` [Compd 20, 5-(4-Methylpiperazine-1-carbonyl)-8-fluoro-2-phenyl-2,5-dihydro-pyrazolo-(4,3-c)quinolin-3-one], the IC50 was under 1000 nM. With `CC(C)N1CCN(C(=O)n2cc3c(=O)n(-c4ccccc4)nc-3c3cc(F)c(F)cc32)CC1` [Compd 21, 5-(4-Isopropylpiperazine-1-carbonyl)-7,8-difluoro-2-phenyl-2,5-dihydro-pyrazolo-(4,3-c)quinolin-3-one] the figure was under 1000 nM. On to `CN1CCN(C(=O)n2cc3c(=O)n(-c4ccccc4)nc-3c3cc(F)c(F)cc32)CC1` [Compd 22, 5-(4-Methylpiperazine-1-carbonyl)-7,8-difluoro-2-phenyl-2,5-dihydro-pyrazolo-(4,3-c)quinolin-3-one], for which the IC50 is under 1000 nM. With `COc1ccc2c(c1)c1nn(-c3ccccc3)c(=O)c-1cn2C(=O)N1CCN(C(C)C)CC1` [Compd 23, 5-(4-Isopropylpiperazine-1-carbonyl)-8-methoxy-2-phenyl-2,5-dihydro-pyrazolo-(4,3-c)quinolin-3-one] the figure was under 1000 nM; with `Cc1ccc2c(c1)c1nn(-c3ccccc3)c(=O)c-1cn2C(=O)N1CCN(C(C)C)CC1` [Compd 25, 5-(4-Isopropylpiperazine-1-carbonyl)-8-methyl-2-phenyl-2,5-dihydro-pyrazolo-(4,3-c)quinolin-3-one], under 1000 nM; with `Cc1ccc2c(c1)c1nn(-c3ccccc3)c(=O)c-1cn2C(=O)N1CCN(C)CC1` [Compd 26, 5-(4-Methylpiperazine-1-carbonyl)-8-methyl-2-phenyl-2,5-dihydro-pyrazolo-(4,3-c)quinolin-3-one], under 1000 nM. With `Cc1ccc2c(c1)c1nn(-c3ccccc3)c(=O)c-1cn2C(=O)N1CCC(O)CC1` [Compd 27, 5-(4-Hydroxypiperidine-1-carbonyl)-8-methyl-2-phenyl-2,5-dihydro-pyrazolo-(4,3-c)quinolin-3-one] the figure was under 1000 nM. `Cc1ccc2c(c1)c1nn(-c3ccccc3)c(=O)c-1cn2C(=O)N1CCC(F)CC1` [Compd 28, 5-(4-Fluoropiperidine-1-carbonyl)-8-methyl-2-phenyl-2,5-dihydro-pyrazolo-(4,3-c)quinolin-3-one]: the IC50 is under 1000 nM. For the compound `Cc1ccc2c(c1)c1nn(-c3ccccc3)c(=O)c-1cn2C(=O)N1CCCN(C)CC1` [Compd 29, 5-(4-Methylperhydro[1,4]-diazepine-1-carbonyl)-8-methyl-2-phenyl-2,5-dihydro-pyrazolo-(4,3-c)quinolin-3-one], the IC50 is under 1000 nM. With `O=C(N1CCC(O)CC1)n1cc2c(=O)n(-c3ccccc3)nc-2c2ccccc21` [Compd 30, 5-(4-Hydroxypiperidine-1-carbonyl)-2-phenyl-2,5-dihydro-pyrazolo-(4,3-c)quinolin-3-one], the IC50 was over 1000 nM. On to `CN(C)C(=O)n1cc2c(=O)n(-c3ccccc3)nc-2c2ccccc21` [Compd 32, 5-(Dimethylaminocarbonyl)-2-phenyl-2,5-dihydro-pyrazolo-(4,3-c)quinolin-3-one], for which the IC50 is under 1000 nM.
